Source: EP4509511A1, “SUBSTITUTED SPIRO-ISOXAZOLINYL LACTAMS, SALTS THEREOF AND THEIR USE AS HERBICIDALLY ACTIVE SUBSTANCES” (Bayer Aktiengesellschaft, priority 2023, dated 2025)

Experiments:
ABUTH [1] = assay: Herbicidal pre-emergence action - Part I; type: in vivo, Abutilon theophrasti; settings: visual grading after ca. 3 weeks vs untreated controls
Description: (§1) Seeds of mono- and dicotyledonous weed plants were sown in plastic pots (double sowings with one species of mono- and one species of dicotyledonous weed plants per pot), in sandy loam, and covered with soil. The compounds according to the invention, formulated in the form of wettable powders (WP) or as emulsifiable concentrates (EC), were applied to the surface of the covering soil as aqueous suspension or emulsion, with the addition of 0.5% of an additive, at an application rate of 600 1 of water per hectare (converted). Following treatment, the pots were placed in a greenhouse and kept under optimum growth conditions for the test plants. The visual grading of the damage to the test plants was carried out after ca. 3 weeks in comparison to untreated controls (herbicidaleffectinpercent(%):100%effect=plantshavediedoff,0%effect=ascontrolplants). [formula]
(§2) Tables A1 to A12, below, show the effects of selected compounds of the general formula (I) according to table 1 on various harmful plants and an application rate corresponding to 1280 g/ha or below obtained by the experimental procedure mentioned above. Table A1: pre-emergence activity at 1280g/ha against ABUTH in %

VERPE [2] = assay: Herbicidal post-emergence action - Part I; type: in vivo, Veronica persica; settings: one-leaf stage, rated visually after about 3 weeks vs untreated controls
Procedure: (§3) Seeds of mono- and dicotyledonous weed plants were placed in plastic pots in sandy loam soil (doubly sown with in each case one species of mono- or dicotyledonous weed plants per pot), covered with soil and cultivated in a greenhouse under controlled growth conditions. 2 to 3 weeks after sowing, the test plants were treated at the one-leaf stage. The compounds of the invention, formulated in the form of wettable powders (WP) or as emulsion concentrates (EC), were applied onto the green parts of the plants as aqueous suspension or emulsion with addition of 0.5% additive at a water application rate of 600 liters per hectare (converted). After the test plants had been kept in the greenhouse under optimum growth conditions for about 3 weeks, the activity of the preparations was rated visually in comparison to untreated controls. For example, 100% activity = the plants have died, 0% activity = like control plants. Tables B1 to B12, below, show the effects of selected compounds of the general formula (I) according to table 1 on various harmful plants and an application rate corresponding to 1280 g/ha or below obtained by the experimental procedure mentioned above. Table B1a: post-emergence activity at 1280g/ha against ABUTH in %

STEME [3] = assay: Herbicidal pre-emergence action - Part I; type: in vivo, Stellaria media; settings: visual grading after ca. 3 weeks vs untreated controls
Description: as §1, §2

KCHSC [4] = assay: Herbicidal pre-emergence action - Part I; type: in vivo, Kochia scoparia; settings: Table A10a, 1280 g/ha, visual grading after ca. 3 weeks vs untreated controls
Description: as §1, §2

STEME [5] = assay: Herbicidal post-emergence action - Part I; type: in vivo, Stellaria media; settings: one-leaf stage, rated visually after about 3 weeks vs untreated controls
Procedure: as §3

SETVI [6] = assay: Herbicidal pre-emergence action - Part I; type: in vivo, Setaria viridis; settings: 1280 g/ha, visual grading after ca. 3 weeks vs untreated controls
Description: as §1, §2

ECHCG [7] = assay: Herbicidal post-emergence action - Part I; type: in vivo, Echinochloa crus-galli; settings: one-leaf stage, rated visually after about 3 weeks vs untreated controls
Procedure: as §3

MATIN [8] = assay: Herbicidal pre-emergence action - Part I; type: in vivo, Matricaria inodora; settings: visual grading after ca. 3 weeks vs untreated controls
Description: as §1, §2

POAAN [9] = assay: Herbicidal post-emergence action - Part I; type: in vivo, Poa annua; settings: one-leaf stage, rated visually after about 3 weeks vs untreated controls
Procedure: as §3

KCHSC [10] = assay: Herbicidal post-emergence action - Part I; type: in vivo, Kochia scoparia; settings: 1280 g/ha, one-leaf stage, rated visually after about 3 weeks vs untreated controls
Procedure: as §3

ABUTH [11] = assay: Herbicidal post-emergence action - Part I; type: in vivo, Abutilon theophrasti; settings: 320 g/ha, one-leaf stage, rated visually after about 3 weeks vs untreated controls
Procedure: as §3

DIGSA = assay: Herbicidal pre-emergence action - Part I; type: in vivo, Digitaria sanguinalis; settings: visual grading after ca. 3 weeks vs untreated controls
Description: as §1, §2

MATIN [12] = assay: Herbicidal post-emergence action - Part I; type: in vivo, Matricaria inodora; settings: one-leaf stage, rated visually after about 3 weeks vs untreated controls
Procedure: as §3

POAAN [13] = assay: Herbicidal pre-emergence action - Part I; type: in vivo, Poa annua; settings: visual grading after ca. 3 weeks vs untreated controls
Description: as §1, §2

AMARE [14] = assay: Herbicidal pre-emergence action - Part I; type: in vivo, Amaranthus retroflexus; settings: visual grading after ca. 3 weeks vs untreated controls
Description: as §1, §2

AMARE [15] = assay: Herbicidal post-emergence action - Part I; type: in vivo, Amaranthus retroflexus; settings: one-leaf stage, rated visually after about 3 weeks vs untreated controls
Procedure: as §3

ECHCG [16] = assay: Herbicidal pre-emergence action - Part I; type: in vivo, Echinochloa crus-galli; settings: 1280 g/ha, visual grading after ca. 3 weeks vs untreated controls
Description: as §1, §2

PHBPU = assay: Herbicidal post-emergence action - Part II; type: in vivo, Pharbitis purpurea
Description: (§4) Seeds of mono- and dicotyledonous weed plants and crop plants were sown, in plastic or organic planting pots, in sandy loam, covered with soil and grown in a greenhouse under controlled growth conditions. 2 to 3 weeks after sowing, the test plants were sprayed in the single-leaf stage. The compounds according to the invention, formulated in form of wettable powders (WP) or as emulsifiable concentrates (EC), were sprayed onto the green plant parts as aqueous suspension or emulsion, with the addition of 0.5% of an additive, at an application rate of 600 1 of water/ha (converted). The test plants were placed in the greenhouse for ca. 3 weeks under optimum growth conditions, and then the effect of the preparations was assessed visually in comparison with untreated controls (herbicidal effect in percent (%): 100% effect = plants have died off, 0% effect = as control plants). Tables E1 to E10 below show the effects of selected compounds of the general formula (I) according to table 1 on various harmful plants and an application rate corresponding to 320 g/ha or below obtained by the experimental procedure mentioned above. Table E1a: post-emergence activity at 5g/ha against ABUTH in %

SETVI [17] = assay: Herbicidal post-emergence action - Part II; type: in vivo, Setaria viridis; settings: 20 g/ha; Table E7b
Description: as §4

VERPE [18] = assay: Herbicidal post-emergence action - Part II; type: in vivo, Veronica persica
Description: as §4

AMARE [19] = assay: Herbicidal post-emergence action - Part II; type: in vivo, Amaranthus retroflexus
Description: as §4

ECHCG [20] = assay: Herbicidal post-emergence action - Part II; type: in vivo, Echinochloa crus-galli; settings: 20 g/ha; Table E3a
Description: as §4

TRZAS = assay: Post-emergence effects on crop plants; type: in vivo, Triticum aestivum; settings: crop plant
Description: as §4, with “F1” for “E1”, “F5” for “E10”, “crop” for “harmful”, “[…]:” for “E1a:”, “ZEAMX” for “ABUTH”

MATIN [21] = assay: Herbicidal post-emergence action - Part II; type: in vivo, Matricaria inodora; settings: 20 g/ha; Table E4b
Description: as §4

ABUTH [22] = assay: Herbicidal post-emergence action - Part II; type: in vivo, Abutilon theophrasti
Description: as §4

VIOTR = assay: Herbicidal post-emergence action - Part II; type: in vivo, Viola tricolor
Description: as §4

ZEAMX = assay: Post-emergence effects on crop plants; type: in vivo, Zea mays; settings: 20 g/ha; Table F1b; crop plant
Description: as §4, with “F1” for “E1”, “F5” for “E10”, “crop” for “harmful”, “[…]:” for “E1a:”, “ZEAMX” for “ABUTH”

Cc1ccsc1C1=NOC2(CCN(Cc3sc(Cl)nc3C)C2=O)C1 (racemic) [Compound I-48]
100%: pre-emergence activity at 1280g/ha against ABUTH in % (ABUTH [1])

N#Cc1ncccc1C1=NOC2(CCN(Cc3cccc(F)c3F)C2=O)C1 (racemic) [Compound I-41]
100%: post-emergence activity at 1280g/ha against VERPE in % (VERPE [2]; 1280 g/ha) | post-emergence activity at 80g/ha against STEME in % (STEME [5]; 80 g/ha) | post-emergence activity at 320g/ha against STEME in % (STEME [5]; 320 g/ha) | post-emergence activity at 1280g/ha against STEME in % (STEME [5]; 1280 g/ha) | pre-emergence activity at 1280g/ha and against SETVI in % (SETVI [6]) | post-emergence activity at 1280g/ha against ECHCG in % (ECHCG [7]; 1280 g/ha) | pre-emergence activity at 1280g/ha against MATIN in % (MATIN [8]; 1280 g/ha) | post-emergence activity at 320g/ha against ABUTH in % (ABUTH [11]) | pre-emergence activity at 1280g/ha against DIGSA in % (DIGSA; 1280 g/ha) | post-emergence activity at 320g/ha against MATIN in % (MATIN [12]; 320 g/ha) | post-emergence activity at 1280g/ha against MATIN in % (MATIN [12]; 1280 g/ha) | pre-emergence activity at 1280g/ha against ABUTH in % (ABUTH [1]) | pre-emergence activity at 320g/ha and against POAAN in % (POAAN [13]; 320 g/ha) | pre-emergence activity at 1280g/ha and against POAAN in % (POAAN [13]; 1280 g/ha) | post-emergence activity at 1280g/ha against AMARE in % (AMARE [15]; 1280 g/ha) | pre-emergence activity at 1280g/ha against ECHCG in % (ECHCG [16])
90%: post-emergence activity at 320g/ha against VERPE in % (VERPE [2]; 320 g/ha) | pre-emergence activity at 320g/ha against STEME in % (STEME [3]; 320 g/ha) | pre-emergence activity at 1280g/ha against STEME in % (STEME [3]; 1280 g/ha) | pre-emergence activity at 1280g/ha against KCHSC in % (KCHSC [4]) | post-emergence activity at 320g/ha against ECHCG in % (ECHCG [7]; 320 g/ha) | pre-emergence activity at 320g/ha against MATIN in % (MATIN [8]; 320 g/ha) | post-emergence activity at 80g/ha against POAAN in % (POAAN [9]; 80 g/ha) | post-emergence activity at 320g/ha against POAAN in % (POAAN [9]; 320 g/ha) | post-emergence activity at 1280g/ha against POAAN in % (POAAN [9]; 1280 g/ha) | post-emergence activity at 1280g/ha against KCHSC in % (KCHSC [10]) | pre-emergence activity at 320g/ha against DIGSA in % (DIGSA; 320 g/ha) | pre-emergence activity at 320g/ha against AMARE in % (AMARE [14]; 320 g/ha) | pre-emergence activity at 1280g/ha against AMARE in % (AMARE [14]; 1280 g/ha) | post-emergence activity at 80g/ha against AMARE in % (AMARE [15]; 80 g/ha) | post-emergence activity at 320g/ha against AMARE in % (AMARE [15]; 320 g/ha)

Cn1c(C(F)(F)F)cc(=O)n(-c2cc(C3=NOC4(CCN(Cc5ccccc5Cl)C4=O)C3)c(Cl)cc2F)c1=O (racemic) [Compound I-30]
100%: post-emergence activity against PHBPU (PHBPU; 5 g/ha, Table E5a) | post-emergence activity against PHBPU (PHBPU; 20 g/ha, Table E5b) | post-emergence activity against SETVI (SETVI [17]) | post-emergence activity against VERPE (VERPE [18]; 20 g/ha, Table E8b) | post-emergence activity against AMARE (AMARE [19]; 5 g/ha, Table E2a) | post-emergence activity against AMARE (AMARE [19]; 20 g/ha, Table E2b) | post-emergence activity against ECHCG (ECHCG [20]) | post-emergence activity against MATIN (MATIN [21]) | post-emergence activity against ABUTH (ABUTH [22]; 5 g/ha, Table E1a) | post-emergence activity against ABUTH (ABUTH [22]; 20 g/ha, Table E1b) | post-emergence activity against VIOTR (VIOTR; 5 g/ha, Table E9a) | post-emergence activity against VIOTR (VIOTR; 20 g/ha, Table E9b)
90%: post-emergence activity against VERPE (VERPE [18]; 5 g/ha, Table E8a)
20%: post-emergence activity against TRZAS (TRZAS; 5 g/ha, Table F2a) | post-emergence activity against TRZAS (TRZAS; 20 g/ha, Table F2b) | post-emergence activity against ZEAMX (ZEAMX)
